Source: PubChem BioAssay (NCI)
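Method: 48-hour compound exposure of cells in 96-well plates, five concentrations, linear interpolation of endpoints. GI50 = concentration required for 50% inhibition of growth. At the TGI there is no net growth.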

Columns and labels:
Assay in all cases: growth of human tumour cells (NCI), 48 h
[1] = tested on: UACC-257 melanoma
[2] = tested on: SF-295 CNS
[3] = tested on: SN12C renal
[4] = tested on: RPMI-8226 leukemia
[5] = tested on: HCT-15 colon
[6] = tested on: MOLT-4 leukemia
[7] = tested on: OVCAR-8 ovarian
[8] = tested on: COLO 205 colon
[9] = tested on: HCT-116 colon
[10] = tested on: MDA-MB-435

SMILES	TGI [1]	TGI [2]	TGI [3]	TGI [4]	TGI [5]	TGI [6]	TGI [7]	TGI [8]	TGI [9]	GI50 [1]	GI50 [2]	GI50 [3]	GI50 [5]	GI50 [6]	GI50 [7]	GI50 [8]	GI50 [10]	TGI [10]	GI50 [9]	GI50 [4]
CC(O)c1ccc[n+](Cc2ccccc2)c1 (stereo not given)	> 400 µM	> 400 µM	> 400 µM	> 400 µM	> 400 µM	> 400 µM	> 400 µM	> 400 µM	> 400 µM											
COC(=O)NN=C1C(C)(C)C(=O)C1(C)C	> 100 µM	> 100 µM		> 100 µM		> 100 µM	> 100 µM	> 100 µM	> 100 µM											
CCN1Cc2c(ccc(F)c2C#N)O[C@@H](C)CNC(=O)c2c(N)nn3ccc1nc23	16.7 µM	10.3 µM	18.5 µM		14.9 µM	69.2 µM	> 100 µM	3.74 µM	11.5 µM	2.63 µM	0.0758 µM	1.35 µM	2.46 µM	2.75 µM	4.33 µM	0.815 µM	2.74 µM	20.2 µM	1.25 µM	
Oc1ccccc1CNCC12CC3CC(CC(C3)C1)C2		42.2 µM	> 100 µM	45 µM	91.1 µM	70.2 µM	> 100 µM	31 µM	> 100 µM		19.3 µM	32.6 µM	24.8 µM	24.5 µM	79.9 µM	15.6 µM	18.6 µM	43.7 µM	22 µM	18.1 µM
Cc1[nH]c(=O)n2c(C)nnc2c1C(=O)Nc1cc(Cl)cc(Cl)c1		> 100 µM	66.5 µM	> 100 µM	78.7 µM	> 100 µM	> 100 µM	79.4 µM	> 100 µM											
S=c1ssc(Oc2ccccc2)c1Cl	35.5 µM	28.3 µM	28.2 µM	7.7 µM	22.6 µM	> 100 µM	62.4 µM	47.5 µM		17.6 µM	15.1 µM	11.7 µM	7.76 µM	0.73 µM	29.5 µM	23 µM	14.2 µM	27.2 µM		0.95 µM
COc1ccc(/C=C(\C#N)n2nnc3ccccc32)cc1	> 100 µM	6.66 µM	26.6 µM	24.6 µM	> 100 µM	> 44.9 µM	> 100 µM	1.31 µM	2.15 µM	4.92 µM	0.205 µM	0.832 µM	0.0682 µM	0.542 µM	0.416 µM	0.0849 µM			0.0955 µM	0.385 µM
CC1=NN(C(=O)CC(=O)NC(=O)CC(=O)Nc2ccccc2F)C(=O)C1N=Nc1ccc([N+](=O)[O-])cc1 (stereo not given)	76.1 µM	> 100 µM	> 100 µM	46.3 µM	> 100 µM	77.7 µM	> 100 µM	69.2 µM	35.5 µM											
